# Where two headings read alike, the source gives them in different places.
# How the values were obtained:
# [1] = tested on: recombinant NL4-3 virus; test: HIV cell culture assay (antiviral activity, luciferase readout in MT-2 cells); assay type: cell-based; settings: Human immunodeficiency virus 1, NL43, MT2
# Summary of the method: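 MT-2 cells infected for 4-5 days with NL4-3 reference virus carrying Renilla luciferase in place of part of nef, in presence of serial compound dilutions. Luciferase activity read with live-cell substrate. EC50 derived from median effect equation, slope parameter m.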
# [2] = Compound cytotoxicity, XTT-based colorimetric assay; assay type: cell-based; settings: human
# Summary of the method: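 Run under the antiviral-assay protocol but without virus. Viability was read on day 4 and CC50 values were derived from the readout.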
# [3] = uninfected MT2 cells, day 4, XTT, read-out: CC50
smiles,measurement,setting,value
"Cn1nc(NS(C)(=O)=O)c2c(Cl)ccc(-n3c([C@H](Cc4cc(F)cc(F)c4)NC(=O)Cn4nc(C(F)F)c5c4C(F)(F)[C@@H]4C[C@H]54)nc4cc(N5CCC(O)CC5)ccc4c3=O)c21 (atropisomer, axis not shown; (P)) [Example 24, N—((S)-1-((3P)-3-(4-chloro-1-methyl-3-(methylsulfonamido)-1H-indazol-7-yl)-7-(4-hydroxypiperidin-1-yl)-4-oxo-3,4-dihydroquinazolin-2-yl)-2-(3,5-difluorophenyl)ethyl)-2-((3bS,4aR)-3-(difluoromethyl)-5,5-difluoro-3b,4,4a,5-tetrahydro-1H-cyclopropa[3,4]cyclopenta[1,2-c]pyrazol-1-yl)acetamide]",EC50,[1],0.118 nM
same,CC50 at 4 days,[2]; [3],> 500 nM
"C[C@@H]1CN(c2ccc3c(=O)n(-c4ccc(Cl)c5c(NS(C)(=O)=O)nn(CC(F)(F)F)c45)c([C@H](Cc4cc(F)cc(F)c4)NC(=O)Cn4nc(C(F)F)c5c4C(F)(F)[C@@H]4C[C@H]54)nc3c2)C[C@H](C)O1 (atropisomer, axis not shown; (P)) [Example 58, N—((S)-1-((3P)-3-(4-chloro-3-(methylsulfonamido)-1-(2,2,2-trifluoroethyl)-1H-indazol-7-yl)-7-((2S,6R)-2,6-dimethylmorpholino)-4-oxo-3,4-dihydroquinazolin-2-yl)-2-(3,5-difluorophenyl)ethyl)-2-((3bS,4aR)-3-(difluoromethyl)-5,5-difluoro-3b,4,4a,5-tetrahydro-1H-cyclopropa[3,4]cyclopenta[1,2-c]pyrazol-1-yl)acetamide]",EC50,[1],0.053 nM
same,CC50 at 4 days,[2]; [3],> 500 nM
"O=C(Cn1nc(C(F)F)cc1C(F)F)N[C@@H](Cc1cc(F)cc(F)c1)c1nc2cc(N3CCOCC3)ccc2c(=O)n1-c1ccc(Cl)c2c(NS(=O)(=O)C3CC3)nn(CC(F)F)c12 (atropisomer, axis not shown; (P)) [Example 36, (S)-2-(3,5-bis(difluoromethyl)-1H-pyrazol-1-yl)-N-(1-((3P)-3-(4-chloro-3-(cyclopropanesulfonamido)-1-(2,2-difluoroethyl)-1H-indazol-7-yl)-7-morpholino-4-oxo-3,4-dihydroquinazolin-2-yl)-2-(3,5-difluorophenyl)ethyl)acetamide]",EC50,[1],2.31 nM
same,CC50 at 4 days,[2]; [3],> 1000 nM
"C[C@@H]1CN(c2ccc3c(=O)n(-c4ccc(Cl)c5c(NS(C)(=O)=O)nn(CC(F)F)c45)c([C@H](Cc4cc(F)cc(F)c4)NC(=O)Cn4nc(C(F)F)cc4C4CC4)nc3c2)C[C@H](C)O1 [Example 46, N—((S)-1-((3P)-3-(4-chloro-1-(2,2-difluoroethyl)-3-(methylsulfonamido)-1H-indazol-7-yl)-7-((2S,6R)-2,6-dimethylmorpholino)-4-oxo-3,4-dihydroquinazolin-2-yl)-2-(3,5-difluorophenyl)ethyl)-2-(5-cyclopropyl-3-(difluoromethyl)-1H-pyrazol-1-yl)acetamide]",EC50,[1],0.58 nM
same,CC50 at 4 days,[2]; [3],> 500 nM
"O=C(Cn1nc(C(F)F)cc1C1CC1)N[C@@H](Cc1cc(F)cc(F)c1)c1nc2cc(N3CCOCC3)ccc2c(=O)n1-c1ccc(Cl)c2c(NS(=O)(=O)C3CC3)nn(CC(F)F)c12 (atropisomer, axis not shown; (P)) [Example 40, (S)—N-(1-((3P)-3-(4-chloro-3-(cyclopropanesulfonamido)-1-(2,2-difluoroethyl)-1H-indazol-7-yl)-7-morpholino-4-oxo-3,4-dihydroquinazolin-2-yl)-2-(3,5-difluorophenyl)ethyl)-2-(5-cyclopropyl-3-(difluoromethyl)-1H-pyrazol-1-yl)acetamide]",EC50,[1],0.361 nM
same,CC50 at 4 days,[2]; [3],> 1000 nM
"Cn1nc(NS(C)(=O)=O)c2c(Cl)ccc(-n3c([C@H](Cc4cc(F)cc(F)c4)NC(=O)Cn4nc(C(F)F)c5c4C(F)(F)[C@@H]4C[C@H]54)nc4cc(N5CC6(COC6)C5)ccc4c3=O)c21 (atropisomer, axis not shown; (P)) [Example 21, N—((S)-1-((3P)-3-(4-chloro-1-methyl-3-(methylsulfonamido)-1H-indazol-7-yl)-4-oxo-7-(2-oxa-6-azaspiro[3.3]heptan-6-yl)-3,4-dihydroquinazolin-2-yl)-2-(3,5-difluorophenyl)ethyl)-2-((3bS,4aR)-3-(difluoromethyl)-5,5-difluoro-3b,4,4a,5-tetrahydro-1H-cyclopropa[3,4]cyclopenta[1,2-c]pyrazol-1-yl)acetamide]",EC50,[1],0.064 nM
same,CC50 at 4 days,[2]; [3],> 500 nM
"O=C(Cn1nc(C(F)F)cc1C1CC1)N[C@@H](Cc1cc(F)cc(F)c1)c1nc2cc(N3CCCCC3)ccc2c(=O)n1-c1ccc(Cl)c2c(NS(=O)(=O)C3CC3)nn(CC(F)F)c12 (atropisomer, axis not shown; (P)) [Example 39, (S)—N-(1-((3P)-3-(4-chloro-3-(cyclopropanesulfonamido)-1-(2,2-difluoroethyl)-1H-indazol-7-yl)-4-oxo-7-(piperidin-1-yl)-3,4-dihydroquinazolin-2-yl)-2-(3,5-difluorophenyl)ethyl)-2-(5-cyclopropyl-3-(difluoromethyl)-1H-pyrazol-1-yl)acetamide]",EC50,[1],3.72 nM
same,CC50 at 4 days,[2]; [3],> 1000 nM
"Cn1nc(NS(C)(=O)=O)c2c(Cl)ccc(-n3c([C@H](Cc4cc(F)cc(F)c4)NC(=O)Cn4nc(C(F)F)c5c4C(F)(F)[C@@H]4C[C@H]54)nc4cc(N5CC(C)(C)OC(C)(C)C5)ccc4c3=O)c21 (atropisomer, axis not shown; (P)) [Example 57, N—((S)-1-((3P)-3-(4-chloro-1-methyl-3-(methylsulfonamido)-1H-indazol-7-yl)-4-oxo-7-(2,2,6,6-tetramethylmorpholino)-3,4-dihydroquinazolin-2-yl)-2-(3,5-difluorophenyl)ethyl)-2-((3bS,4aR)-3-(difluoromethyl)-5,5-difluoro-3b,4,4a,5-tetrahydro-1H-cyclopropa[3,4]cyclopenta[1,2-c]pyrazol-1-yl)acetamide]",EC50,[1],0.077 nM
same,CC50 at 4 days,[2]; [3],> 500 nM
"C[C@@H]1CN(c2ccc3c(=O)n(-c4ccc(Cl)c5c(NS(=O)(=O)C6CC6)nn(CC(F)F)c45)c([C@H](Cc4cc(F)cc(F)c4)NC(=O)Cn4nc(C(F)F)c5c4C(F)(F)[C@@H]4C[C@H]54)nc3c2)C[C@H](C)O1 (atropisomer, axis not shown; (P)) [Example 10, N—((S)-1-((3P)-3-(4-chloro-3-(cyclopropanesulfonamido)-1-(2,2-difluoroethyl)-1H-indazol-7-yl)-7-((2S,6R)-2,6-dimethylmorpholino)-4-oxo-3,4-dihydroquinazolin-2-yl)-2-(3,5-difluorophenyl)ethyl)-2-((3bS,4aR)-3-(difluoromethyl)-5,5-difluoro-3b,4,4a,5-tetrahydro-1H-cyclopropa[3,4]cyclopenta[1,2-c]pyrazol-1-yl)acetamide]",EC50,[1],0.072 nM
same,CC50 at 4 days,[2]; [3],> 500 nM
"C[C@@H]1CN(c2ccc3c(=O)n(-c4ccc(Cl)c5c(NS(C)(=O)=O)nn(C)c45)c([C@H](Cc4cc(F)cc(F)c4)NC(=O)Cc4cn(C5CC5)c5ccccc45)nc3c2)C[C@H](C)O1 (atropisomer, axis not shown; (P)) [Example 53, N—((S)-1-((3P)-3-(4-chloro-1-methyl-3-(methylsulfonamido)-1H-indazol-7-yl)-7-((2S,6R)-2,6-dimethylmorpholino)-4-oxo-3,4-dihydroquinazolin-2-yl)-2-(3,5-difluorophenyl)ethyl)-2-(1-cyclopropyl-1H-indol-3-yl)acetamide]",EC50,[1],0.81 nM
same,CC50 at 4 days,[2]; [3],> 500 nM
"Cn1nc(NS(C)(=O)=O)c2c(Cl)ccc(-n3c([C@H](Cc4cc(F)cc(F)c4)NC(=O)Cn4nc(C(F)F)c5c4C(F)(F)[C@@H]4C[C@H]54)nc4cc(N5C6COCC5COC6)ccc4c3=O)c21 [Example 6, N—((S)-1-(7-(3,7-dioxa-9-azabicyclo[3.3.1]nonan-9-yl)-(3P)-3-(4-chloro-1-methyl-3-(methylsulfonamido)-1H-indazol-7-yl)-4-oxo-3,4-dihydroquinazolin-2-yl)-2-(3,5-difluorophenyl)ethyl)-2-((3bS,4aR)-3-(difluoromethyl)-5,5-difluoro-3b,4,4a,5-tetrahydro-1H-cyclopropa[3,4]cyclopenta[1,2-c]pyrazol-1-yl)acetamide]",EC50,[1],0.145 nM
same,CC50 at 4 days,[2],> 500 nM
"CCCS(=O)(=O)Nc1nn(C)c2c(-n3c([C@H](Cc4cc(F)cc(F)c4)NC(=O)Cn4nc(C(F)F)c5c4C(F)(F)[C@@H]4C[C@H]54)nc4cc(N5CCOCC5)ccc4c3=O)ccc(Cl)c12 (atropisomer, axis not shown; (P)) [Example 66, N—((S)-1-((3P)-3-(4-chloro-1-methyl-3-(propylsulfonamido)-1H-indazol-7-yl)-7-morpholino-4-oxo-3,4-dihydroquinazolin-2-yl)-2-(3,5-difluorophenyl)ethyl)-2-((3bS,4aR)-3-(difluoromethyl)-5,5-difluoro-3b,4,4a,5-tetrahydro-1H-cyclopropa[3,4]cyclopenta[1,2-c]pyrazol-1-yl)acetamide]",EC50,[1],0.066 nM
same,CC50 at 4 days,[2]; [3],> 500 nM
"Cn1nc(NS(C)(=O)=O)c2c(Cl)ccc(-n3c([C@H](Cc4cc(F)cc(F)c4)NC(=O)Cn4nc(C(F)F)c5c4C(F)(F)[C@@H]4C[C@H]54)nc4cc(NCC(F)(F)F)ccc4c3=O)c21 (atropisomer, axis not shown; (P)) [Example 42, N—((S)-1-((3P)-3-(4-chloro-1-methyl-3-(methylsulfonamido)-1H-indazol-7-yl)-4-oxo-7-((2,2,2-trifluoroethyl)amino)-3,4-dihydroquinazolin-2-yl)-2-(3,5-difluorophenyl)ethyl)-2-((3bS,4aR)-3-(difluoromethyl)-5,5-difluoro-3b,4,4a,5-tetrahydro-1H-cyclopropa[3,4]cyclopenta[1,2-c]pyrazol-1-yl)acetamide]",EC50,[1],0.11 nM
same,CC50 at 4 days,[2]; [3],> 1000 nM
